Test results reported in patent publication US20250249012A1, “COMPOSITIONS AND METHODS FOR TREATING AND/OR PREVENTING A VIRAL INFECTION” (priority 2022, published 2025).
Structures can show the parent of a compound that is named as a salt. Where two headings read alike, the source gives them in different places.

Assays:
[1] = test system: A549-ACE2-TMPRSS2GFP cells; details: 20 hours post infection
[2] = Solubility of Apilimod and Nafamostat in different vehicles (visible precipitate); type: physicochemical; details: for precipitate in solution: 1 mg/ml Apilimod di-mesylate, 2 mg/ml Nafamostat mesylate, 12 hours at room temperature, also seen after centrifugation; for solubility in deionized water: mixed and dissolved in deionized (MilliQ) water; for solubility in solutions containing salt: phosphate buffer saline (PBS) or DMEM cell culture medium, particularly when together
Text: FIGS. 1A-1B show the solubility of Apilimod and Nafamostat in different vehicles. […] Magnified images of the boxed areas are shown on the right panels.
This is the reason why our drug mixtures were made in deionized (MilliQ) water as stocks and for intranasal administration. While the mouse nose tolerates exposure to deionized (MilliQ) water, for humans it may be necessary to adjust the osmolarity of the solution, for example by adding sucrose.

[3] = Pharmacokinetics in plasma; type: in vivo
Vero-E6 cells = details: 20 hours post infection

Compound | number of cells, normalized to vehicle-treated infected cells ([1]; drug stock prepared in DMEM) | number of cells, normalized to vehicle-treated infected cells ([1]; drug stock prepared in PBS) | precipitate in solution ([2]; in DMEM) | precipitate in solution ([2]; in PBS) | solubility in deionized water [2] | solubility in solutions containing salt [2] | half-life in plasma [3] | number of cells, normalized to vehicle-treated infected cells (Vero-E6 cells; drug stock prepared in DMEM) | number of cells, normalized to vehicle-treated infected cells (Vero-E6 cells; drug stock prepared in PBS)
N=C(N)c1ccc2cc(OC(=O)c3ccc(N=C(N)N)cc3)ccc2c1 [Nafamostat mesylate] | Significant loss of cells | Significant loss of cells | a precipitate is observable | a precipitate is observable | substantially increased | relatively insoluble and precipitate | relatively short half-life times (minutes) |  | 
N-[(E)-(3-methylphenyl)methylidencamino]-6-morpholin-4-yl-2-(2-pyridin-2-ylethoxy)pyrimidin-4-amine [Apilimod dimesylate] |  |  | a precipitate is observable | a precipitate is observable | substantially increased | relatively insoluble and precipitate | relatively short half-life times (minutes) | Significant loss of cells | Significant loss of cells
